Patent publication US12172992B2, “Pyrimidines for degrading Bruton's tyrosine kinase” (AbbVie Inc., priority 2022, dated 2024)

What was measured:
[1] = molecular target: BTK protein in human whole blood (Homo sapiens (Human), UniProt Q06187); experiment: Btk protein in human whole blood MSD ELISA based assay (BTK degradation); assay type: cell-based; conditions: 6 hours, maximum BTK degradation compared to DMSO only treated samples, read-out: hWB BTK dMax (%)
Experimental: Btk protein degradation was tested using an Meso Scale Discovery-ELISA system (MSD-ELISA): (1) Test compounds were added to human whole blood; (2) human whole blood cells treated with test compounds were lysed; (3) lysed cells were treated with capture antibody, an antibody to Btk; (4) lysed cells were treated with […] to Btk; and (5) lysed cells were treated with anti-mouse antibody (tagged).
Specifically, about 80 μl of fresh human whole blood from healthy donors was transferred into each well of a 96-well V-bottom plate (Costar, Cat No. 3894). Using a TECAN™ D300e Digital Dispenser (Tecan)), 1:4 serially diluted compounds [(8 pt assay) in DMSO solution (final 0.2%) starting at 3 μM top concentration], were added in duplicate. Thereafter, plates were placed in a 37° C. incubator and incubated for 6 hours.
At the end of incubation, 80 μl of 2×CST lysis buffer (Cell Signaling Technology, Cat No. 9803), prepared from a 10× stock solution, was added per well to lyse the blood. Plates were then sealed with a plate sealer and the samples were frozen overnight at −80° C.
Total amount of BTK protein remaining in the blood samples after compound treatment was measured using MSD-ELISA. After thawing the frozen plates, blood lysates were mixed thoroughly and transferred to small spot high-bind MSD plates (Meso Scale Discovery, Cat No. L45XB-3) and coated with capturing antibody, rabbit anti-human BTK (D3H5) (Cell Signaling Technology, Cat No. 8547CF). Thereafter, primary detection antibody, mouse anti-human BTK monoclonal antibody, (BD Biosciences, Cat No. 611117) and secondary detection antibody, anti-mouse SULFO-TAG (Meso Scale Discovery, Cat No. R32AC-1) were added. The assay plates were read on an MSD S600 plate reader by the addition of 2×MSD read buffer (Meso Scale Discovery, R92TC-1). All reagent transfers, including blood lysis, was conducted using a Biomed i7 liquid handler. From the dose response curves, DC50 values were calculated by averaging data from duplicate experiments. and Curve fitting was done by non-linear regression using GraphPad Prism. The DC50 values are reported in Table 2 in the hWB BTK DC50 (nM) column The Dmax values represent the maximum amount of BTK degradation observed upon compound treatment compared to DMSO only treated samples. The dMax (%) values are reported in Table 2 in the hWB BTK dMax (%) column.

[2] = molecular target: BTK in mouse bone marrow (Mus musculus (Mouse), UniProt P35991); experiment: Mouse Bone Marrow Assay (MSD ELISA of BTK degradation in bone marrow); assay type: in vivo; conditions: female C57BL/6J mice, single dose of Dose A, bone marrow collected after 24 hours
Sequence of BTK in mouse bone marrow (P35991 whole entry): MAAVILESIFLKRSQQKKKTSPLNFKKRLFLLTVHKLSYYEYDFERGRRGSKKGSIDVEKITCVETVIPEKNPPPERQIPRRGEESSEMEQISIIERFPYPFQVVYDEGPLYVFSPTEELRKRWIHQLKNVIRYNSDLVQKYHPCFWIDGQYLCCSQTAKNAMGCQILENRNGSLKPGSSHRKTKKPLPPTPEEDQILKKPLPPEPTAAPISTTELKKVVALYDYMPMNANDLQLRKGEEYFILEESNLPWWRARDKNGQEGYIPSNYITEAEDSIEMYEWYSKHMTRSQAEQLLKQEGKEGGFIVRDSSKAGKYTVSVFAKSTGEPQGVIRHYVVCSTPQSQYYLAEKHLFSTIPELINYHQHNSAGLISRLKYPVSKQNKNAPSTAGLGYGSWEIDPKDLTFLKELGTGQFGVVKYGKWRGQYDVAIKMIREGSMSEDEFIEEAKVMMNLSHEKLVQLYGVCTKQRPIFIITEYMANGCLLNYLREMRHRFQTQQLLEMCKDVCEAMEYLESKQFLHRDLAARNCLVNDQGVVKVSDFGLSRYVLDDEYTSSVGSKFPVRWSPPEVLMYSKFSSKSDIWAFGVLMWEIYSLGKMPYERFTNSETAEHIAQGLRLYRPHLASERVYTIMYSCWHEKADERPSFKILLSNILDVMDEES
Experimental: Female C57BL/6J mice (Jackson Laboratories) were used for this study. Compounds or vehicle/control were prepped with EtOH; PEG-400; Phosal 53 MCT (10:30:60, v/v). Four mice were tested per compound or vehicle/control. On Day 1, mice were administered a single dose of Dose A. On Day 2 (after 24 hours), tissue (bone marrow) was collected from one hind leg per mouse.
An MSD (Meso Scale Discovery) ELISA (enzyme-linked immunosorbent assay) based assay was used to determine BTK degradation in mouse bone marrow. The following materials and equipment were used: 10% NP40 solution (nonionic polyoxyethylene surfactant, ThermoFisher, cat no. 28324); protease inhibitor mini tablet (Roche, cat no. 05 892 970 001); PhosphoSTOP™ tablet (Roche, cat no. 04 906 837 001); Pierce™ BCA Protein Assay Kit (Thermofisher, Cat No. 23225); Precellys® 2 mL lysing tube with 2.8 mm beads (VWR, cat no. 10032-756); Bertin Precellys® 24/Cryolys® cooling system; 96-well MSD streptavidin pre-coated plates (MSD, cat no. L15SA-1); MSD Blocker A (MSD, cat no. R93BA-4); capture antibody, biotinylated BTK mAb (BD Biosciences, cat no. 624008; custom order); primary detection antibody, BTK RpAb (rabbit polyclonal antibody, CST, cat no. 8547S, D3H5 clone); secondary detection antibody, anti-Rabbit-Sulfo-Tag (MSD, cat no. R32AB-1); read Buffer, 4× (MSD, cat no. R92TC-1); recombinant BTK protein (Thermofisher, cat no. PR5442A); MSD Tris Wash Buffer (10×) (MSD, cat no. R61TX-1); PBS (phosphate-buffered saline); deionized water (diH2O); Lysis Buffer [0.2% NP40 in PBS+Protease Inhibitor tablet (1 tablet/10 mL)+PhosphoSTOP tablet (1 tablet/10 mL)]; 3% MSD Blocker A [MSD Blocker A+450 mL diH2O+50 mL]; and 10×MSD Tris Wash Buffer.
Lysis buffer [(PBS+0.2% NP40+PI (protease inhibitor)+PhosphoSTOP)] was prepared and put on ice until it was fully cold. Ice cold lysis buffer […] was added to each Precellys® tube containing beads and bone marrow sample. Sample tubes were transferred into Precellys® machine and homogenized using 5000 rpm—2×20 seconds. The sample lysates were centrifuged at 14,000 rpm for 20 minutes at 4° C. after homogenizing.
The protein concentration was determined using Pierce™ BCA Protein Assay Kit following manufacturer's recommended protocol. The protein normalized working solution was prepared, using 30 μg protein per sample lysate for assay.
A 300 ng/ml working stock solution of recombinant BTK protein in lysis buffer was prepared, and the sample was serially diluted at 3-fold dilution (10-point assay, highest concentration was 300 ng/mL and lowest concentration was 0.015 ng/mL)
MSD plate coating: Coating antibody (biotinylated-BTK mAb) stock solution was prepared at 1 μg/mL in PBS buffer. 50 μL/well capture antibody (Biotinylated BTK mAb) solution was added, and the plates were shaken gently at ambient temperature for two hours. The plates were washed 3 times with 1×MSD Tris Wash Buffer in a plate washer (300 μL/well), and the plates were blocked with 3% MSD Blocker A (150 μL/well). The plates were incubated for an additional 1-2 hours at ambient temperature with gentle shaking. The plates were washed 3 times with 1×MSD wash buffer using plate washer. Bone marrow lysates (30 μg) at a final volume of 50 μL/well were added into the plates. The serially diluted standard samples were added to the same plates at a final volume of 50 μL/well. The plates were incubated overnight at 4° C. with gentle shaking.
The plates were washed three times with 1×MSD wash buffer (prepared from 10× concentration buffer) using plate washer. Primary detection antibody at 50 μL/well was added (BTK RpAb; 1:1000 dilution in 1% MSD Blocker A). The plates were incubated for two hours at ambient temperature with gentle shaking. The plates were washed three times with 1×MSD wash buffer using plate washer. Anti-Rabbit-SULFO-TAG secondary antibodies (50 μl/well) were added, 1:500 diluted in 1% MSD Blocker A, and the plates were incubated for one to two hours at ambient temperature. […]

Sequence of BTK protein in human whole blood (Q06187 whole entry): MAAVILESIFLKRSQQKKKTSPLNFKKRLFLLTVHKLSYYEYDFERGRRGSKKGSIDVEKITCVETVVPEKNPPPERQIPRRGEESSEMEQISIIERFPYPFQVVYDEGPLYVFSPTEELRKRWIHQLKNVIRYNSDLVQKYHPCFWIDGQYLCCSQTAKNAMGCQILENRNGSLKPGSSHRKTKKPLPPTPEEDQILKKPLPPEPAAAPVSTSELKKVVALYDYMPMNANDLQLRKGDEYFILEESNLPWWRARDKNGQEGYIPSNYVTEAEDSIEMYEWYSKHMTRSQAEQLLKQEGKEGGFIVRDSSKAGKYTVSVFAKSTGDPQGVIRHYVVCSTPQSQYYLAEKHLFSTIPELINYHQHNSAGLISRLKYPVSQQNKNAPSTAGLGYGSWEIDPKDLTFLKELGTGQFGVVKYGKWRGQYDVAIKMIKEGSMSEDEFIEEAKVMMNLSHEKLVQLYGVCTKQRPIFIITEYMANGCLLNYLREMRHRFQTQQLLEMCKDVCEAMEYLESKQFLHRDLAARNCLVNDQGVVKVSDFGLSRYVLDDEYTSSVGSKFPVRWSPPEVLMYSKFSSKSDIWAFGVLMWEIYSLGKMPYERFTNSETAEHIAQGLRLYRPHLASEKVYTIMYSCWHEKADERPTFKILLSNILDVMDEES

Row | Dmax [1] [%] | Mouse Bone Marrow (%) (% remaining BTK, vehicle versus treated) [2] | SMILES
1 | 98.8 | 12 | Cc1cc(-c2cc(Nc3ccc(N4CCN(CCc5ccc(N6CCC(=O)NC6=O)cc5)C[C@H]4C)cn3)ncn2)ccc1[C@@H](C)NC(=O)c1nc(C(C)(C)C)no1 [Example 2, 3-tert-butyl-N-[(1R)-1-{4-[6-({5-[(2R)-4-{2-[4-(2,4-dioxo-1,3-diazinan-1-yl)phenyl]ethyl}-2-methylpiperazin-1-yl]pyridin-2-yl}amino)pyrimidin-4-yl]-2-methylphenyl}ethyl]-1,2,4-oxadiazole-5-carboxamide]
2 | 99.2 | 22 | Cc1cc(-c2cc(Nc3ccc(N4CCN(CCc5ccc(N6CCC(=O)NC6=O)cc5)CC4)cn3)ncn2)ccc1[C@@H](C)NC(=O)c1nc(C(C)(C)C)no1 [Example 3, 3-tert-butyl-N-{(1R)-1-[4-(6-{[5-(4-{2-[4-(2,4-dioxo-1,3-diazinan-1-yl)phenyl]ethyl}piperazin-1-yl)pyridin-2-yl]amino}pyrimidin-4-yl)-2-methylphenyl]ethyl}-1,2,4-oxadiazole-5-carboxamide]
3 | 99.8 | 13 | Cc1cc(-c2cc(Nc3ccc(N4CCN(CCc5ccc(N6CCC(=O)NC6=O)c(F)c5)C[C@@H]4C)cn3)ncn2)ccc1[C@@H](C)NC(=O)c1nc(C(C)(C)C)no1 [Example 4, 3-tert-butyl-N-[(1R)-1-{4-[6-({5-[(2S)-4-{2-[4-(2,4-dioxo-1,3-diazinan-1-yl)-3-fluorophenyl]ethyl}-2-methylpiperazin-1-yl]pyridin-2-yl}amino)pyrimidin-4-yl]-2-methylphenyl}ethyl]-1,2,4-oxadiazole-5-carboxamide]
4 | 99.3 | 12 | Cc1cc(-c2cc(Nc3ccc(N4CCN(CCc5ccc(N6CCC(=O)NC6=O)c(F)c5)C[C@H]4C)cn3)ncn2)ccc1[C@@H](C)NC(=O)c1nc(C(C)(C)C)no1 [Example 5, 3-tert-butyl-N-[(1R)-1-{4-[6-({5-[(2R)-4-{2-[4-(2,4-dioxo-1,3-diazinan-1-yl)-3-fluorophenyl]ethyl}-2-methylpiperazin-1-yl]pyridin-2-yl}amino)pyrimidin-4-yl]-2-methylphenyl}ethyl]-1,2,4-oxadiazole-5-carboxamide]
5 | 99.8 | 19 | CC[C@H]1CN(CCc2ccc(N3CCC(=O)NC3=O)cc2)CCN1c1ccc(Nc2cc(-c3ccc([C@@H](C)NC(=O)c4nc(C(C)(C)C)no4)c(C)c3)ncn2)nc1 [Example 6, 3-tert-butyl-N-[(1R)-1-{4-[6-({5-[(2S)-4-{2-[4-(2,4-dioxo-1,3-diazinan-1-yl)phenyl]ethyl}-2-ethylpiperazin-1-yl]pyridin-2-yl}amino)pyrimidin-4-yl]-2-methylphenyl}ethyl]-1,2,4-oxadiazole-5-carboxamide]
6 | 99.3 | 22 | CC[C@H]1CN(CCc2ccc(N3CCC(=O)NC3=O)c(F)c2)CCN1c1ccc(Nc2cc(-c3ccc([C@@H](C)NC(=O)c4nc(C(C)(C)C)no4)c(C)c3)ncn2)nc1 [Example 7, 3-tert-butyl-N-[(1R)-1-{4-[6-({5-[(2S)-4-{2-[4-(2,4-dioxo-1,3-diazinan-1-yl)-3-fluorophenyl]ethyl}-2-ethylpiperazin-1-yl]pyridin-2-yl}amino)pyrimidin-4-yl]-2-methylphenyl}ethyl]-1,2,4-oxadiazole-5-carboxamide]
7 | 98.6 | 30 | CC[C@@H]1CN(CCc2ccc(N3CCC(=O)NC3=O)cc2)CCN1c1ccc(Nc2cc(-c3ccc([C@@H](C)NC(=O)c4nc(C(C)(C)C)no4)c(C)c3)ncn2)nc1 [Example 8, 3-tert-butyl-N-[(1R)-1-{4-[6-({5-[(2R)-4-{2-[4-(2,4-dioxo-1,3-diazinan-1-yl)phenyl]ethyl}-2-ethylpiperazin-1-yl]pyridin-2-yl}amino)pyrimidin-4-yl]-2-methylphenyl}ethyl]-1,2,4-oxadiazole-5-carboxamide]
8 | 99.9 | – | COC[C@H]1CN(CCc2ccc(N3CCC(=O)NC3=O)cc2)CCN1c1ccc(Nc2cc(-c3ccc([C@@H](C)NC(=O)c4nc(C(C)(C)C)no4)c(C)c3)ncn2)nc1 [Example 15, 3-tert-butyl-N-[(1R)-1-{4-[6-({5-[(2R)-4-{2-[4-(2,4-dioxo-1,3-diazinan-1-yl)phenyl]ethyl}-2-(methoxymethyl)piperazin-1-yl]pyridin-2-yl}amino)pyrimidin-4-yl]-2-methylphenyl}ethyl]-1,2,4-oxadiazole-5-carboxamide]
9 | 100 | – | C[C@@H](NC(=O)c1nc(C(C)(C)C)no1)c1ccc(-c2cc(Nc3ccc(N4CCN(CCc5ccc(N6CCC(=O)NC6=O)cc5)C[C@@H]4C)cn3)ncn2)cc1C(F)(F)F [Example 16, 3-tert-butyl-N-[(1R)-1-{4-[6-({5-[(2S)-4-{2-[4-(2,4-dioxo-1,3-diazinan-1-yl)phenyl]ethyl}-2-methylpiperazin-1-yl]pyridin-2-yl}amino)pyrimidin-4-yl]-2-(trifluoromethyl)phenyl}ethyl]-1,2,4-oxadiazole-5-carboxamide]
10 | 99.6 | – | C[C@@H](NC(=O)c1nc(C(C)(C)C)no1)c1ccc(-c2cc(Nc3ccc(N4CCN(CCc5ccc(N6CCC(=O)NC6=O)cc5)C[C@@H]4C)cn3)ncn2)cc1F [Example 17, 3-tert-butyl-N-[(1R)-1-{4-[6-({5-[(2S)-4-{2-[4-(2,4-dioxo-1,3-diazinan-1-yl)phenyl]ethyl}-2-methylpiperazin-1-yl]pyridin-2-yl}amino)pyrimidin-4-yl]-2-fluorophenyl}ethyl]-1,2,4-oxadiazole-5-carboxamide]
